Experimental findings from patent publication US9101600B2, “Compounds as RORγt modulators and uses thereof” (New York University, priority 2010, dated 2015) are described below.

The target of the assay is RORγ/γt (Mus musculus, UniProt P51450, T352K). The experiment in a line: RORγ/γt-luc reporter S2 cell assay / HTS (firefly luciferase). The note with it: for Curve Class: RORγ/γt HTS concentration response curve class.

Structures are written as SMILES. pIC50: −log10 of the molar value.

Sequence of RORγ/γt (P51450 with tags, fused parts or gaps T352K): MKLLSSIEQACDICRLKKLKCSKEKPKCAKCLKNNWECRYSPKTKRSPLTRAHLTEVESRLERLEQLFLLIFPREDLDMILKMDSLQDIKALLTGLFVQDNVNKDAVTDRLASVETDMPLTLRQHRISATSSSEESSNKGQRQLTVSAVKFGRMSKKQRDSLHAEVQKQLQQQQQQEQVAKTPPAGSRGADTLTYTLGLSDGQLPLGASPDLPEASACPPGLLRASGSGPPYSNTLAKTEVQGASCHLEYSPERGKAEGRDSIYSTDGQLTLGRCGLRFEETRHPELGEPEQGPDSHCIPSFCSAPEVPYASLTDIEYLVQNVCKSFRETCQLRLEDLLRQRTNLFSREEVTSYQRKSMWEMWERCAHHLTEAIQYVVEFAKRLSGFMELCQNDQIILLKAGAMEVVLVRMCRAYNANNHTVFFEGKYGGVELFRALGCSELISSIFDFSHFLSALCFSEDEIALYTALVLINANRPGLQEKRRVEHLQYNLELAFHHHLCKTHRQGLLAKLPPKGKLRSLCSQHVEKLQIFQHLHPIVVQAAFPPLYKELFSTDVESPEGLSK
From the text: The Drosophila S2 cell line was originally purchased from Invitrogen and was maintained in Schneider's medium supplemented with 10% heat-inactivated bovine fetal calf serum and antibiotics (Invitrogen). Gal4 DNA binding domain (G4 DBD) corresponding to amino acids 1 through 147 of Gal4 protein was PCR amplified to make a fusion construct with mouse RORγt (amino acids 79 to the carboxyl terminal end) lacking its DNA binding domain. The resulting chimeric gene was subcloned into the copper inducible pMT/V5-His A vector (available from Invitrogen). In a similar manner, Gal4 fusion constructs were prepared with mouse RORα (amino acids 142 to end) or Drosophila DHR3 (amino acids 120 to end).
In order to generate stable cell lines, cells were co-transfected with pMT-G4 DBD-RORγt, pMT-G4 DBD-RORα, pMT-G4 DBD-DHR3, or pMT-G4DBDVP16 and pHygro plasmids (Invitrogen) and screened for resistant colonies in the presence of hygromycin (0.3 mg/mL). More than 150 independent RORγ stable clones with luciferase reporters (pMt-RORγ_luc) were tested for their suitability for the high-throughput screening (HTS) based on the following criteria: high signal-to background ratio in 384- and 1,536-well plates, their high induction rate upon the addition of copper, and RORγ/γt specificity probed by the dsRORγ- or RORγ/γt antagonist-mediated suppression. Positive clones were further transfected with pUAST-firefly luciferase, polIII-Renilla luciferase, and pCoPuro (Iwaki, Figuera et al. 2003) (“Rapid selection of Drosophila S2 cells with the puromycin resistance gene.” Biotechniques 35(3): 482-4, 486.) and selected with puromycin (2.5 ug/ml). […] Using similar methods, stable clones with genomic integration of the luciferase reporters and other reporters were generated such as pMT-RORα_luc, pMT-DHR3_luc, or pMT-VP16_luc.
600 G4 DBD-RORγ/γt-luc reporter (#25) or G4 DBD-VP16-luc reporter cells were distributed into each well of 1,536-well white bottom plates in 4 μl S2 cell culture volume containing hygromicin (300 μg/ml) and puromycin (2 μg/ml). Small compounds in seven different concentrations range from 46 μM to 1.7 nM were pin-transferred (23 nl) by a robot (Inglese et al., 2006, Proc. Natl. Acad. Sci. 103:11473-8). […] After 20-hour incubation at ambient temperature, 1.5 μl firefly luciferase detection mix was added and the luciferase activities were measured in 10 min. ViewLux luminometers were used for measuring luciferase signal.
Since their cognate DNA binding sites were not well characterized, the DNA binding domains (DBD) of RORγ/γt, RORα(mouse homolog for PORγ), and DHR3 (Drosophila orthologue for ROR family proteins) were replaced with the heterologous yeast GAL4 DBD. The transcriptionally active domain of general transcriptional activator VP16 was also fused with GAL4 DBD.

Consider `C=C1NN=C(c2cc(-c3cccc(OCC)c3)nc3ccccc23)N1CC` [MLS000324596-02], for which the negative-log IC50 (pIC50) (commonly −log10 of the IC50, conventionally taken in molar units) was 5.68. The “80% Inhib. @” value (RORγ/γt reporter, S2 cells, concentration for 80% inhibition) was found to be 3.293 µM.
On to `CCOC(=O)[C@@H]1[C@H]2COc3ccc(Br)cc3[C@@H]2N2C(=O)N(c3ccc(C(F)(F)F)cc3)C(=O)[C@@]12C` [MLS001066025-01], for which the “Curve Class” value is reported as 4.
Turning to `CCOC(=O)[C@@H]1[C@H]2COc3ccc(Br)cc3[C@@H]2N2C(=O)N(c3cccc(F)c3)C(=O)[C@@]12C` [MLS001066026-01], the activity was half-maximal at 17.8 µM (AC50) and the “Curve Class” value was −2.2.
The like results for `CCOC(=O)[C@@H]1[C@H]2COc3ccc(Br)cc3[C@@H]2N2C(=O)N(c3ccc(C(F)(F)F)cc3)C(=O)[C@]12C` [MLS001066035-01] were, in that order, 3.98 µM and 4.
In the same order, the values of `CCOC(=O)[C@@H]1[C@H]2COc3ccc(Br)cc3[C@H]2N2C(=O)N(c3cccc(F)c3)C(=O)[C@]12C` [MLS001066046-01] are 0.0126 µM and 4.
In the case of `CCOC(=O)[C@@H]1[C@H]2COc3ccc(Br)cc3[C@H]2N2C(=O)N(c3cccc(Cl)c3)C(=O)[C@]12C` [MLS001066096-01], the AC50 (in general, the midpoint of the concentration-response curve, whichever way the signal moves) amounted to 8.91 µM and the “Curve Class” value was −2.2.
For the molecule `CCOC(=O)[C@@H]1[C@H]2COc3ccccc3[C@H]2N2C(=O)N(c3ccc(OC)cc3)C(=O)[C@]12C` [MLS001066225-01], the “Curve Class” value was found to be 4.
Turning to `CCOC(=O)[C@@H]1[C@H]2COc3cc(OC)ccc3[C@@H]2N2C(=O)N(c3ccc(F)cc3)C(=O)[C@]12C` [MLS001066228-01], half-maximal activity (AC50) was put at 0.141 µM and the “Curve Class” value stood at 4.
For the molecule `CCOC(=O)[C@@H]1[C@H]2COc3cc(OC)ccc3[C@@H]2N2C(=O)N(c3ccc(C(F)(F)F)cc3)C(=O)[C@]12C` [MLS001066230-01], the “Curve Class” value is recorded as 4.
`CCOC(=O)[C@@H]1[C@H]2COc3cc(OC)ccc3[C@@H]2N2C(=O)N(c3cccc(F)c3)C(=O)[C@@]12C` [MLS001066231-01]: the half-maximal activity concentration (AC50) turned out to be 10 µM and the “Curve Class” value was −2.1.
On to `CCOC(=O)[C@@H]1[C@H]2COc3cc(OC)ccc3[C@H]2N2C(=O)N(c3ccc(F)cc3)C(=O)[C@]12C` [MLS001066238-01], for which the “Curve Class” value was 4.
Turning to `CCOC(=O)[C@@H]1[C@H]2COc3cc(OC)ccc3[C@@H]2N2C(=O)N(c3cccc(F)c3)C(=O)[C@]12C` [MLS001066241-01], the half-maximal activity concentration (AC50) worked out at 3.98 µM and the “Curve Class” value is listed as 4.
Turning to `CCOC(=O)[C@@H]1[C@H]2COc3ccc(Br)cc3[C@@H]2N2C(=O)N(c3ccccc3)C(=O)[C@]12C` [MLS001066242-01], half-maximal activity (AC50) was put at 0.0224 µM and the “Curve Class” value worked out at 4.
In the case of `CCOC(=O)[C@@H]1[C@H]2COc3ccc(Br)cc3[C@@H]2N2C(=O)N(c3ccc(F)cc3)C(=O)[C@]12C` [MLS001066243-01], the half-maximal activity concentration (AC50) worked out at 0.891 µM and the “Curve Class” value is listed as 4.
`CCOC(=O)[C@@H]1[C@H]2COc3ccc(Br)cc3[C@@H]2N2C(=O)N(c3ccc(Br)cc3)C(=O)[C@]12C` [MLS001066244-01]: the AC50 was found to be 0.0056 µM and the “Curve Class” value turned out to be 4.
For the molecule `CCOC(=O)[C@@H]1[C@H]2COc3cc(OC)ccc3[C@H]2N2C(=O)N(c3ccc(F)cc3)C(=O)[C@@]12C` [MLS001066248-01], the “Curve Class” value is given as 4.
As to `CCOC(=O)[C@@H]1[C@H]2COc3cc(OC)ccc3[C@H]2N2C(=O)N(c3ccc(C(F)(F)F)cc3)C(=O)[C@@]12C` [MLS001066250-01], the activity was half-maximal at 4.47 µM (AC50) and the “Curve Class” value stood at 4.
Regarding `CCOC(=O)[C@@H]1[C@H]2COc3ccc(Br)cc3[C@H]2N2C(=O)N(c3ccc(F)cc3)C(=O)[C@]12C` [MLS001066253-01], the “Curve Class” value is recorded as 4.
For `CCOC(=O)[C@@H]1[C@H]2COc3ccc(Br)cc3[C@H]2N2C(=O)N(c3ccc(Br)cc3)C(=O)[C@]12C` [MLS001066254-01], the AC50 worked out at 1.12 µM and the “Curve Class” value amounted to 4.
On to `CCOC(=O)[C@@H]1[C@H]2COc3ccccc3[C@H]2N2C(=O)N(c3cccc(F)c3)C(=O)[C@]12C` [MLS001066256-01], for which the “Curve Class” value amounted to 4.
The same measure, in the same setting: next, `CCOC(=O)[C@H]1[C@H]2COc3cc(OC)ccc3[C@@H]2N2C(=O)N(c3ccc(Br)cc3)C(=O)[C@@]12C` [MLS001066259-01]: 4.
On to `CCOC(=O)[C@@H]1[C@H]2COc3ccc(Br)cc3[C@H]2N2C(=O)N(c3ccc(F)cc3)C(=O)[C@@]12C` [MLS001066263-01], for which the activity was half-maximal at 0.0045 µM (AC50) and the “Curve Class” value worked out at 4.
`CCOC(=O)[C@@H]1[C@H]2COc3cc(OC)ccc3[C@@H]2N2C(=O)N(c3ccc(Cl)cc3)C(=O)[C@@]12C` [MLS001066268-01]: half-maximal activity (AC50) was put at 8.91 µM and the “Curve Class” value was −2.1.
As for `CCOC(=O)[C@@H]1[C@H]2COc3cc(OC)ccc3[C@@H]2N2C(=O)N(c3cccc(C)c3)C(=O)[C@@]12C` [MLS001066270-01], the AC50 was found to be 12.6 µM and the “Curve Class” value is given as −3.
With `CCOC(=O)[C@@H]1[C@H]2COc3ccccc3[C@H]2N2C(=O)N(c3ccc(C(F)(F)F)cc3)C(=O)[C@]12C` [MLS001066275-01], half-maximal activity (AC50) was put at 5.01 µM and the “Curve Class” value was 4.
As for `CCOC(=O)[C@@H]1[C@H]2COc3ccccc3[C@@H]2N2C(=O)N(c3cccc(Cl)c3)C(=O)[C@@]12C` [MLS001066276-01], the AC50 stood at 17.8 µM and the “Curve Class” value is listed as −3.
Take `CCOC(=O)[C@@H]1[C@H]2COc3cc(OC)ccc3[C@@H]2N2C(=O)N(c3ccc(OC)cc3)C(=O)[C@]12C` [MLS001066279-01]: the “Curve Class” value came out at 4.
Take `CCOC(=O)[C@@H]1[C@H]2COc3cc(OC)ccc3[C@@H]2N2C(=O)N(c3cccc(Cl)c3)C(=O)[C@@]12C` [MLS001066281-01]: the half-maximal activity concentration (AC50) was found to be 11.2 µM and the “Curve Class” value is reported as −2.2.
Turning to `CCOC(=O)[C@@H]1[C@H]2COc3ccccc3[C@@H]2N2C(=O)N(c3cccc(Cl)c3)C(=O)[C@]12C` [MLS001066286-01], the “Curve Class” value was determined as 4.
For the molecule `CCOC(=O)[C@@H]1[C@H]2COc3cc(OC)ccc3[C@@H]2N2C(=O)N(c3cccc(Cl)c3)C(=O)[C@]12C` [MLS001066291-01], the AC50 came out at 0.112 µM and the “Curve Class” value is reported as 4.
As to `CCOC(=O)[C@@H]1[C@H]2COc3ccc(Br)cc3[C@@H]2N2C(=O)N(c3ccc(OC)cc3)C(=O)[C@]12C` [MLS001066294-01], half-maximal activity (AC50) was put at 0.112 µM and the “Curve Class” value came out at 4.
The like results for `CCOC(=O)[C@@H]1[C@H]2COc3cc(OC)ccc3[C@H]2N2C(=O)N(c3ccc(C)cc3)C(=O)[C@@]12C` [MLS001066297-01] were, in that order, 0.891 µM and 4.
For `CCOC(=O)[C@@H]1[C@H]2COc3cc(OC)ccc3[C@H]2N2C(=O)N(c3cccc(Cl)c3)C(=O)[C@]12C` [MLS001066301-01], the AC50 was found to be 0.631 µM and the “Curve Class” value amounted to 4.
As to `CCOC(=O)[C@@H]1[C@H]2COc3ccc(Br)cc3[C@H]2N2C(=O)N(c3ccc(C)cc3)C(=O)[C@]12C` [MLS001066302-01], the “Curve Class” value is 4.
For the molecule `CCOC(=O)[C@@H]1[C@H]2COc3ccccc3[C@@H]2N2C(=O)N(c3cccc(C)c3)C(=O)[C@]12C` [MLS001066305-01], the AC50 worked out at 0.891 µM and the “Curve Class” value came out at 4.
Regarding `CCOC(=O)[C@@H]1[C@H]2COc3ccccc3[C@H]2N2C(=O)N(c3cccc(Cl)c3)C(=O)[C@@]12C` [MLS001066306-01], the AC50 came to 7.08 µM and the “Curve Class” value is recorded as 4.
`CCOC(=O)[C@H]1[C@H]2COc3cc(OC)ccc3[C@@H]2N2C(=O)N(c3ccc(Cl)cc3)C(=O)[C@@]12C` [MLS001066308-01]: the “Curve Class” value was determined as 4.
On to `CCOC(=O)[C@@H]1[C@H]2COc3cc(OC)ccc3[C@H]2N2C(=O)N(c3cccc(Cl)c3)C(=O)[C@@]12C` [MLS001066311-01], for which half-maximal activity (AC50) was put at 10 µM and the “Curve Class” value was 4.
With `CCOC(=O)[C@@H]1[C@H]2COc3ccc(Br)cc3[C@H]2N2C(=O)N(c3ccc(Cl)cc3)C(=O)[C@@]12C` [MLS001066313-01], the AC50 was determined as 0.0447 µM and the “Curve Class” value was found to be 4.
The like results for `CCOC(=O)[C@@H]1[C@H]2COc3cc(OC)ccc3[C@@H]2N2C(=O)N(c3ccc(Br)cc3)C(=O)[C@@]12C` [MLS001066318-01] were, in that order, 7.94 µM and −2.1.
For `CCOC(=O)[C@@H]1[C@H]2COc3cc(OC)ccc3[C@@H]2N2C(=O)N(c3ccc(C(F)(F)F)cc3)C(=O)[C@@]12C` [MLS001066319-01], the AC50 is 15.8 µM and the “Curve Class” value was −3.
In the same order, the values of `CCOC(=O)[C@H]1[C@H]2COc3cc(OC)ccc3[C@@H]2N2C(=O)N(c3cccc(Cl)c3)C(=O)[C@@]12C` [MLS001066321-01] are 6.31 µM and 4.
Consider `CCOC(=O)[C@@H]1[C@H]2COc3ccccc3[C@@H]2N2C(=O)N(c3ccc(Cl)cc3)C(=O)[C@]12C` [MLS001066434-01], for which the concentration at half-maximal activity (AC50) is 3.16 µM and the “Curve Class” value stood at 4.
Consider `CCOC(=O)[C@@H]1[C@H]2COc3ccccc3[C@@H]2N2C(=O)N(c3ccc(C)cc3)C(=O)[C@]12C` [MLS001066443-01], for which the concentration at half-maximal activity (AC50) turned out to be 3.98 µM and the “Curve Class” value amounted to 4.
In the case of `CCOC(=O)[C@@H]1[C@H]2COc3ccccc3[C@H]2N2C(=O)N(c3ccc(Cl)cc3)C(=O)[C@]12C` [MLS001066444-01], the concentration at half-maximal activity (AC50) is 0.0071 µM and the “Curve Class” value is on record as 4.
As to `CCOC(=O)[C@@H]1[C@H]2COc3ccccc3[C@H]2N2C(=O)N(c3ccc(C)cc3)C(=O)[C@]12C` [MLS001066453-01], the AC50 was determined as 0.282 µM and the “Curve Class” value amounted to 4.
As to `CCOC(=O)[C@@H]1[C@H]2COc3ccccc3[C@H]2N2C(=O)N(c3ccc(Cl)cc3)C(=O)[C@@]12C` [MLS001066454-01], half-maximal activity (AC50) was put at 11.2 µM and the “Curve Class” value is listed as 4.
For `CCOC(=O)[C@@H]1[C@H]2COc3ccccc3[C@@H]2N2C(=O)N(c3ccccc3)C(=O)[C@@]12C` [MLS001066482-01], the activity was half-maximal at 12.6 µM (AC50) and the “Curve Class” value was −2.1.
